Key:
P2Y purinoceptor 6 = P2Y purinoceptor 6 (Homo sapiens, UniProt Q15077); assay: Antagonist activity at human P2Y6
P2Y purinoceptor 14 [1] = target: T1, P2Y purinoceptor 14 (Homo sapiens, UniProt Q15391); assay: Antagonist activity at human P2Y14 expressed in CHO cells assessed as inhibition constant; type: cell-based
T1 sequence (Q15391 whole entry): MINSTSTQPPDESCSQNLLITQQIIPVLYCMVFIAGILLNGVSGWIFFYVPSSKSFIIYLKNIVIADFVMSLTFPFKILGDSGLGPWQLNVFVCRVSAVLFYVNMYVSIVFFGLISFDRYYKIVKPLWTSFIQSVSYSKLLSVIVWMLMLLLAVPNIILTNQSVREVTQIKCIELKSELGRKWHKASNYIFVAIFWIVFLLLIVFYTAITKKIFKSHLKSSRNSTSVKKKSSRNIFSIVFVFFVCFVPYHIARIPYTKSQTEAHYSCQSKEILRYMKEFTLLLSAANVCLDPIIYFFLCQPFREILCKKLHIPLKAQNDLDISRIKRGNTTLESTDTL

P2Y purinoceptor 12 [2] = target: T2, P2Y purinoceptor 12 (Homo sapiens, UniProt Q9H244); assay: Displacement of [3H]-2-MeS-ADP from human P2Y12 assessed as inhibition constant incubated for 30 mins
T2 sequence (Q9H244 whole entry): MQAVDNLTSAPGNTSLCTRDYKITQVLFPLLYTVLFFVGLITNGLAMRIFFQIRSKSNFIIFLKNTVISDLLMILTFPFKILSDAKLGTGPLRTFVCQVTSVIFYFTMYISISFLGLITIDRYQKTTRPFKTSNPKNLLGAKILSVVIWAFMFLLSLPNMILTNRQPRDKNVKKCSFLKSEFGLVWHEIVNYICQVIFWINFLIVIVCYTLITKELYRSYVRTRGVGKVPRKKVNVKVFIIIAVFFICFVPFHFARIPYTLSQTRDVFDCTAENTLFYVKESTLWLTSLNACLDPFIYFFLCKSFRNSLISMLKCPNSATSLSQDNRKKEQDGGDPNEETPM

P2Y purinoceptor 4 [3] = target: T3, P2Y purinoceptor 4 (Homo sapiens, UniProt P51582); assay: Agonist activity at human P2Y4 transfected in human 1321N1 cells; type: cell-based
T3 sequence (P51582 whole entry): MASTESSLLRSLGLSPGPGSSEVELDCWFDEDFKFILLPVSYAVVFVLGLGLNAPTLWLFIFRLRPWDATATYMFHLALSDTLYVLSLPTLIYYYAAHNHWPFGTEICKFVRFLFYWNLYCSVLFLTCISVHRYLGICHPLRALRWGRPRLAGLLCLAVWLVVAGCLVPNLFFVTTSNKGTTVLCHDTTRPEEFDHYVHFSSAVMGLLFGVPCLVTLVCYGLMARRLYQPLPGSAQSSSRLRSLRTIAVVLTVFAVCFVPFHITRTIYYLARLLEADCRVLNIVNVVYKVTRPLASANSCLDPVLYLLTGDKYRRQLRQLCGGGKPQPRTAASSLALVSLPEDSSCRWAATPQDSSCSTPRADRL

P2Y purinoceptor 4 [4] = target: T3, P2Y purinoceptor 4; assay: Agonist activity at human P2Y4 transfected in human 1321N1 cells at 100 uM relative to control; type: cell-based
[5] = target: P2Y purinoceptor 4 (Rattus norvegicus) (UniProt O35811); assay: Agonist activity at rat P2Y4 transfected in human 1321N1 cells at 100 uM relative to control; type: cell-based
P2Y purinoceptor 4 (Rattus norvegicus), sequence (O35811 whole entry): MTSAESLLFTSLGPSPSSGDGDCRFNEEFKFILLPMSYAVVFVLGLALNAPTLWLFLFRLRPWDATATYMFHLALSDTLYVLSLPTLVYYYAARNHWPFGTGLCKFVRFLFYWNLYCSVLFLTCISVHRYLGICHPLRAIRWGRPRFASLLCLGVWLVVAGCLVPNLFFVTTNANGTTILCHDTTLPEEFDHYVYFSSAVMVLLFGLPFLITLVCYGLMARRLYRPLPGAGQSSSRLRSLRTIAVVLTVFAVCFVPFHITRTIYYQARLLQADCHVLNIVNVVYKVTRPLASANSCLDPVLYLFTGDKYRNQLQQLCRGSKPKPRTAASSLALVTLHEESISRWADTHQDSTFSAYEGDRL

[6] = Oral bioavailability in mouse; details: in vivo
[7] = Binding affinity to chimpanzee P2Y14 assessed as inhibition constant; design: species or system Pan troglodytes
in vivo = details: mouse, po
[8] = Cmax in rat measured up to 24 hrs; type: ADME; design: time < 24 hrs; details: in vivo
[9] = Cmax in mouse measured up to 24 hrs; type: ADME; design: time < 24 hrs; details: in vivo
[10] = Oral bioavailability in C57BL/6 mouse at 50 mg/kg; details: in vivo
[11] = Half life in C57BL/6 mouse 2 mg/kg, iv; details: in vivo
[12] = Half life in C57BL/6 mouse 2 mg/kg, iv; type: ADME, organism-based; details: in vivo
P2Y purinoceptor 14 [13] = target: T4, P2Y purinoceptor 14 (Rattus norvegicus, UniProt O35881); assay: Antagonist activity at rat P2Y14
T4 sequence (O35881 whole entry): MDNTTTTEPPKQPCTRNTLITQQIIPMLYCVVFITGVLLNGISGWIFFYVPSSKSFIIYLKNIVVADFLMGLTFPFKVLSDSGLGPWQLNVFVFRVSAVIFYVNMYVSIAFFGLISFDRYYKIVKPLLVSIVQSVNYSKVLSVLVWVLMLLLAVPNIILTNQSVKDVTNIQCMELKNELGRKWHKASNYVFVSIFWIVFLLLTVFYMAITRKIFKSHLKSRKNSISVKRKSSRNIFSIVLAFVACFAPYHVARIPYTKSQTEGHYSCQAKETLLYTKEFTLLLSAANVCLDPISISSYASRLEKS

[14] = Clearance in rat at 30 mg/kg, po; type: ADME, organism-based; details: in vivo
[15] = Half life in rat 30 mg/kg, po; type: ADME, organism-based; details: in vivo
[16] = Volume of distribution at steady state in rat at 30 mg/kg, PO; type: ADME, organism-based; details: in vivo
[17] = Half life in rat 1 mg/kg, iv; type: ADME, organism-based; details: in vivo
[18] = Antagonist activity at human P2Y12 by aggregation assay
P2Y purinoceptor 1 [19] = target: T5, P2Y purinoceptor 1 (Homo sapiens, UniProt P47900); assay: Agonist activity at human P2Y1
T5 sequence (P47900 whole entry): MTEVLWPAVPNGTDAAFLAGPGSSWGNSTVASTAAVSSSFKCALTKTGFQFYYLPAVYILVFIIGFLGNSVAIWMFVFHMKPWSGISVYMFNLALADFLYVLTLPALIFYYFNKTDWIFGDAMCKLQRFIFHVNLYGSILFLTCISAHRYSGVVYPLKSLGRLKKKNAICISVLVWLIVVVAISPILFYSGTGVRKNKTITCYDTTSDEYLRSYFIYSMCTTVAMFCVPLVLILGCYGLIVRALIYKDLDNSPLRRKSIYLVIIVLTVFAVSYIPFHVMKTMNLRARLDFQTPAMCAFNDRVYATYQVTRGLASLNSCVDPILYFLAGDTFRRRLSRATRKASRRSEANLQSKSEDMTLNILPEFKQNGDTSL

P2Y purinoceptor 13 [20] = target: T6, P2Y purinoceptor 13 (Homo sapiens, UniProt Q9BPV8); assay: Antagonist activity at P2Y13 (unknown origin)
T6 sequence (Q9BPV8 whole entry): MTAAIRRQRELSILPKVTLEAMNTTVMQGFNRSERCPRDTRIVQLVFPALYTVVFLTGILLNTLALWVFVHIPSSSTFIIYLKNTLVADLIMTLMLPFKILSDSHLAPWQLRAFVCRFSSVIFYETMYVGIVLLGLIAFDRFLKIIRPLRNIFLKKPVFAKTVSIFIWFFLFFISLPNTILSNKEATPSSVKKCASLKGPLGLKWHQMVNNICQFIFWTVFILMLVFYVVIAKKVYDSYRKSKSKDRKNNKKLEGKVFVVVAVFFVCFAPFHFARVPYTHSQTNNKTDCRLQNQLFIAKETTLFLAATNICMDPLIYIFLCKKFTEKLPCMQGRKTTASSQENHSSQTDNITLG

P2Y purinoceptor 12 [21] = target: T2, P2Y purinoceptor 12; assay: Antagonist activity at human P2Y12
P2Y purinoceptor 2 = P2Y purinoceptor 2 (Mus musculus, UniProt P35383); assay: Antagonist activity at mouse P2Y2
P2Y purinoceptor 2, sequence (P35383 whole entry): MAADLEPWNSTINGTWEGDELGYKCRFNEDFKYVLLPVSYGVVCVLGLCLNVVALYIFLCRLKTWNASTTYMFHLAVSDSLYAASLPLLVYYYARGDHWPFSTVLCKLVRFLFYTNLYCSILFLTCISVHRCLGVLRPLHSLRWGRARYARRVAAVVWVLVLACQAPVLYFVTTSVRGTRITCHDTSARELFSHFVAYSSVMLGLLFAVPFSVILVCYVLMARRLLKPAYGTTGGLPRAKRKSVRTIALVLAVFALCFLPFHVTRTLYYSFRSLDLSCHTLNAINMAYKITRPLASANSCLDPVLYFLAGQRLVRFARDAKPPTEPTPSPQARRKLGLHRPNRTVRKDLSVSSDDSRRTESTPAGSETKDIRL

[22] = Antagonist activity at ATP gamma S induced mucin in Normal human bronchial epithelial cell; type: cell-based
P2Y purinoceptor 1 [23] = target: T5, P2Y purinoceptor 1; assay: Inhibition of human P2Y1
P2Y purinoceptor 13 [24] = target: T6, P2Y purinoceptor 13; assay: Antagonist activity at human P2Y13
P2Y purinoceptor 1 [25] = target: T5, P2Y purinoceptor 1; assay: Inhibition of human P2Y1 assessed as inhibition constant
[26] = Antagonist activity at P2Y14 using UDP-Glc as substrate
P2Y purinoceptor 4 [27] = target: T3, P2Y purinoceptor 4
P2Y purinoceptor 4 [28] = target: P2Y purinoceptor 4 (Rattus norvegicus, UniProt O35811); assay: Agonist activity at rat P2Y4
P2Y purinoceptor 4 (Rattus norvegicus, UniProt O35811), sequence (O35811 whole entry): as the sequence (O35811 whole entry) above

[29] = Volume of distribution at steady state in rat; type: ADME; details: in vivo
[30] = Clearance in rat; type: ADME; details: in vivo
[31] = Antagonist activity at human pA2 by FLIPR assay

P2Y purinoceptor 6, sequence (Q15077 whole entry): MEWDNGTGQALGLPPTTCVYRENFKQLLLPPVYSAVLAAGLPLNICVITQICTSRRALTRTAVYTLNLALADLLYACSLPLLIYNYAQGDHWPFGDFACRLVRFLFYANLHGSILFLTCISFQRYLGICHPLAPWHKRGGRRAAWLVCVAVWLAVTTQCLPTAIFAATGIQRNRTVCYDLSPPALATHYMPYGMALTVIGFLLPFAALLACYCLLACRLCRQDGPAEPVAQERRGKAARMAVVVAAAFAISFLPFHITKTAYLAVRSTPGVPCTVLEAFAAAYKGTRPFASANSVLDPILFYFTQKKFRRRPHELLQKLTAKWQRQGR

**Q.** With `S=C=Nc1ccc(CCc2ccc(N=C=S)cc2)cc1` as the molecule, how does the IC50 (P2Y purinoceptor 6) read?
**A.** 100 nM

**Q.** Which Ki (P2Y purinoceptor 14 [1]) does the source give for `CC(=O)c1cc(C(=O)NCCCCCCn2cc(CCCCN3CCC(c4ccc(-c5cc(C(=O)O)cc6cc(-c7ccc(C(F)(F)F)cc7)ccc56)cc4)CC3)nn2)ccc1-c1c2ccc(=N)c(S(=O)(=O)O)c-2oc2c(S(=O)(=O)O)c(N)ccc12` here?
**A.** 0.08 nM

**Q.** With `CCCSc1nc(N[C@@H]2C[C@H]2c2ccccc2)c2nnn([C@@H]3C[C@H](c4nnn[nH]4)[C@@H](O)[C@H]3O)c2n1` as the molecule, how does the Ki (P2Y purinoceptor 12 [2]) read?
**A.** 2 nM

**Q.** Which EC50 (P2Y purinoceptor 4 [3]) does the source give for `O=c1ccn([C@@H]2O[C@H](COP(=O)(O)OP(=O)(O)OP(=O)(O)O)[C@@H](O)[C@H]2O)c(=O)[nH]1` [URIDINE TRIPHOSPHATE] here?
**A.** 550 nM

**Q.** What does the source list for `Nc1ncnc2c1ncn2[C@@H]1O[C@H](COP(=O)(O)OP(=O)(O)O)[C@@H](O)[C@H]1O`?
**A.** Activity (P2Y purinoceptor 4 [4]): 15%; Activity [5]: 34%

**Q.** Which results are given for `O=C(O)c1cc(-c2ccc(C3CCNCC3)cc2)c2ccc(-c3ccc(C(F)(F)F)cc3)cc2c1` [PPTN]?
**A.** bioavailability [6]: 5%; Ki [7]: 1.9 nM; bioavailability (in vivo): 5%; Cmax [8]: 680 nM; Cmax [9]: 2280 nM

**Q.** Which bioavailability [10] does the source give for `Cc1cc(F)cc(C)c1COc1ccc2c(-c3ccsc3)cc(C(=O)O)cc2c1` here?
**A.** 12%

**Q.** What about the half-life [11] of the same molecule?
**A.** 162 min

**Q.** And the half-life [12]?
**A.** 162 min

**Q.** With `O=c1ccn([C@@H]2O[C@H](COP(=O)(O)OP(=O)(O)O)[C@@H](O)[C@H]2O)c(=O)[nH]1` [URIDINE_DIPHOSPHATE] as the molecule, how does the EC50 (P2Y purinoceptor 14 [13]) read?
**A.** 350 nM

**Q.** Which results are given for `CC(C)(C)c1ccccc1Oc1ncccc1NC(=O)Nc1ccc(OC(F)(F)F)cc1`?
**A.** CL/F [14]: 13 mL/min/kg; half-life [15]: 84 min; Vdss [16]: 0.8 L/kg; half-life [17]: 924 min

**Q.** For `S=C=Nc1cccc(NC(=S)NCCCCNC(=S)Nc2cccc(N=C=S)c2)c1`, which IC50 (P2Y purinoceptor 6) is on record?
**A.** 37 nM

**Q.** Which pIC50 [18] does the source give for `CCCCNc1nc(SCCC)nc2c1nnn2[C@@H]1C[C@H](/C=C/C(=O)N[C@@H](CC(=O)O)C(=O)O)[C@@H](O)[C@H]1O` here?
**A.** 9.3

**Q.** Which pIC50 [18] does the source give for `CCCCNc1nc(SCCC)nc2c1nnn2[C@@H]1O[C@H](/C=C/C(=O)N[C@@H](CC(=O)O)C(=O)O)[C@@H](O)[C@H]1O` here?
**A.** 9.5

**Q.** For `CNc1nc(Cl)nc2c1ncn2CCC(COP(=O)(O)O)COP(=O)(O)O`, which IC50 (P2Y purinoceptor 1 [19]) is on record?
**A.** 0.84 µM

**Q.** With `Cc1ccc(C(=O)Nc2ccc(S(=O)(=O)O)c3cc(S(=O)(=O)O)cc(S(=O)(=O)O)c23)cc1NC(=O)c1cccc(NC(=O)Nc2cccc(C(=O)Nc3cc(C(=O)Nc4ccc(S(=O)(=O)O)c5cc(S(=O)(=O)O)cc(S(=O)(=O)O)c45)ccc3C)c2)c1` [SURAMIN HEXASODIUM] as the molecule, how does the IC50 (P2Y purinoceptor 13 [20]) read?
**A.** 2300 nM

**Q.** For `CCOC(=O)N1CCN(C(=O)[C@H](CCC(=O)O)NC(=O)c2cc(OC(C)(C)C(=O)O)c3ccc(C)cc3n2)CC1`, which IC50 (P2Y purinoceptor 12 [21]) is on record?
**A.** 8.3 nM

**Q.** For `COc1ccc(-c2cc(=O)c3c(OC)c(OC)c(OC)c(OC)c3o2)cc1` [TANGERETIN], which IC50 (P2Y purinoceptor 2) is on record?
**A.** 12 µM

**Q.** For `Cc1ccc2c(c1)C=Cc1cc(C)ccc1C2c1cn(Cc2ccc(C(=O)Nc3nnn[nH]3)o2)c(=O)[nH]c1=S`, which IC50 [22] is on record?
**A.** 1000 nM

**Q.** With `CNc1ncnc2c1ncn2[C@H]1C[C@H](OP(=O)(O)O)[C@@H](COP(=O)(O)O)O1` as the molecule, how does the IC50 (P2Y purinoceptor 1 [23]) read?
**A.** 330 nM

**Q.** Which IC50 (P2Y purinoceptor 12 [21]) does the source give for `CCOC(=O)N1CCN(C(=O)[C@H](CCC(=O)O)NC(=O)c2cc(OC(C)(C)C(=O)OCC)c3ccc(C)cc3n2)CC1` here?
**A.** 130 nM

**Q.** With `Cc1nc(/N=N/c2cc([N+](=O)[O-])ccc2Cl)c(COP(=O)(O)O)c(C=O)c1O` as the molecule, how does the IC50 (P2Y purinoceptor 13 [24]) read?
**A.** 1070 nM

**Q.** For `Cc1nc(/N=N/c2ccc(Cl)c([N+](=O)[O-])c2)c(COP(=O)(O)O)c(C=O)c1O`, which IC50 (P2Y purinoceptor 13 [24]) is on record?
**A.** 661 nM

**Q.** For `Nc1c(S(=O)(=O)O)cc(Nc2ccc(Nc3nc(Cl)nc(Nc4cccc(S(=O)(=O)O)c4)n3)c(S(=O)(=O)O)c2)c2c1C(=O)c1ccccc1C2=O` [RB 2], which IC50 (P2Y purinoceptor 13 [20]) is on record?
**A.** 1900 nM

**Q.** With `Cc1cc(Oc2ccccc2NC(=O)Nc2ccc(C3CCS(=O)(=O)CC3)cc2)n(-c2ccccc2Cl)n1` as the molecule, how does the Ki (P2Y purinoceptor 1 [25]) read?
**A.** > 10000 nM

**Q.** Which results are given for `Nc1ncnc2c1ncn2[C@H]1C[C@H](OP(=O)(O)O)[C@@H](COP(=O)(O)O)O1`?
**A.** EC50 (P2Y purinoceptor 1 [19]): 6.3 µM; IC50 (P2Y purinoceptor 1 [19]): 5.8 µM

**Q.** With `O=C(O)c1cc(-c2ccccc2)c2ccc(OCc3ccccc3)cc2c1` as the molecule, how does the IC50 [26] read?
**A.** 3.5 µM

**Q.** Which EC50 (P2Y purinoceptor 4 [27]) does the source give for `Nc1ncnc2c1ncn2[C@@H]1O[C@H](COP(=O)(O)OP(=O)(O)OP(=O)(O)O)[C@@H](O)[C@H]1O` [ADENOSINE TRIPHOSPHATE] here?
**A.** 6.2 µM

**Q.** What about the EC50 (P2Y purinoceptor 4 [28]) of the same molecule?
**A.** 1170 nM

**Q.** For `Cc1nc(/N=N/c2ccc(S(=O)(=O)O)cc2S(=O)(=O)O)c(COP(=O)(O)O)c(C=O)c1O`, which IC50 (P2Y purinoceptor 13 [20]) is on record?
**A.** 11600 nM

**Q.** Which Ki (P2Y purinoceptor 1 [25]) does the source give for `CCc1ccccc1-n1nc(C)cc1Oc1ccccc1NC(=O)Nc1ccc(OC(F)(F)F)cc1` here?
**A.** 70 nM

**Q.** For `Cc1cc(Oc2ccccc2NC(=O)Nc2ccc(OC(F)(F)F)cc2)n(-c2ccccc2Cl)n1`, which Vdss [29] is on record?
**A.** 15.7 L/kg

**Q.** And the clearance [30]?
**A.** 81 mL/min/kg

**Q.** For `CCCCNc1nc(SCCC)nc2c1ncn2[C@@H]1O[C@H](/C=C/C(=O)N[C@@H](CC(=O)O)C(=O)O)[C@@H](O)[C@H]1O`, which pIC50 [18] is on record?
**A.** 7

**Q.** With `CC(C)(C)CN1CCC2(CC1)CN(c1ccccc1NC(=O)Nc1nc3ccc(Cl)nc3s1)c1c(O)cc(F)c(-c3ccc(F)cc3)c12` as the molecule, how does the bioavailability [6] read?
**A.** 30%

**Q.** What about the Vd ([29]; read-out: Vdss) of the same molecule?
**A.** 2.1 L/kg

**Q.** And the clearance [30]?
**A.** 4 mL/min/kg

**Q.** What about the IC50 [31] of the same molecule?
**A.** 180 nM

From ChEMBL document CHEMBL5257031, “Drug-like Antagonists of P2Y Receptors-From Lead Identification to Drug Development” (J Med Chem, 2016)
